According to patent US20250221409A1, “COMPOSITION FOR POTENTIATING EFFECTS OF USEFUL SUBSTANCE” (KANEKA CORPORATION, priority 2022, published 2025):

System: soybean leaves
Assay: Promotion of herbicide (PQ) effects: SPAD values of soybean leaves after spraying test solutions
Format: in vivo, soybean (variety Fukuyutaka)
Details: Experimental Example 2-1 (FIG. 4); PQ 0.001 mass %, surfactin 0.001 mass %, lecithin 0.0005 mass %; 3 days after application
Method: Culture soil was filled into 9-cm vinyl pots, and soybean seeds (the variety: Fukuyutaka) were seeded at 3 grains/pot. Cultivation was performed in a glass greenhouse, and, after germination, strains were thinned to retain a strain in a pot. The test solutions shown in Table 4 were sprayed on leaves 3 seeks after seeding. The test solutions were prepared by dissolving the components in water. The SPAD (soil and plant analyzer development) values of the leaves were measured using a chlorophyll meter (product name: SPAD-502Plus, Konica Minolta, Inc.) 3 days after application of the test solutions. The SPAD values are used as the indicators showing the chlorophyll amount of plants.
Culture soil was filled into 9-cm vinyl pots, and soybean seeds (the variety: Fukuyutaka) were seeded at 3 grains/pot. Cultivation was performed in a glass greenhouse, and, after germination, strains were thinned to retain a strain in a pot. The test solutions shown in Table 5 were sprayed on leaves 3 seeks after seeding. The test solutions were prepared by dissolving the components in water. When lecithin was to be added, at the outset, lecithin was dissolved in water, and a biosurfactant was added to reach a given concentration. The SPAD values of the leaves were measured using a chlorophyll meter 3 days after application of the test solutions.

For `C[n+]1ccc(-c2cc[n+](C)cc2)cc1` [PQ, paraquat dichloride], the “SPAD values of the leaves” value was “not substantially different from the SPAD values of the control”.
